# From patent publication US12370166B2, “Pentadecanoylcarnitine for treatment of conditions related to the quality of aging and longevity” (EPITRACKER, INC., priority 2021, dated 2025)
# Tests used:
# BT cell system = assay: Human primary cell phenotypic profiling, BT cell system (asthma, oncology, autoimmunity, allergy); type: cell-based; details: 6.7 μM stated for pentadecanoylcarnitine
# Method: Methods for this human primary cell phenotypic profiling study were those previously described (Venn-Watson, S., Lumpkin, R., Dennis, E. A. Efficacy of dietary odd-chain saturated fatty acid pentadecanoic acid parallels broad associated health benefits in humans: could it be essential? Sci Rep 10:8161 (2020)). Significant activities of pentadecanoylcarnitine were those that were equal to or greater than 0.1|log 10| at 6.7 μM. Biomarkers with significant changes caused by pentadecanoylcarnitine were compared with results from the same study using pentadecanoic acid (C15:0).
# [1] = molecular target: T1, Cholinergic receptor muscarinic 1 (Homo sapiens, UniProt P11229); assay: Receptor-based pharmacological activity, antagonist; type: biochemical; details: for IC50: read-out: RC50 (IC50)
# T1 sequence (P11229 1-460): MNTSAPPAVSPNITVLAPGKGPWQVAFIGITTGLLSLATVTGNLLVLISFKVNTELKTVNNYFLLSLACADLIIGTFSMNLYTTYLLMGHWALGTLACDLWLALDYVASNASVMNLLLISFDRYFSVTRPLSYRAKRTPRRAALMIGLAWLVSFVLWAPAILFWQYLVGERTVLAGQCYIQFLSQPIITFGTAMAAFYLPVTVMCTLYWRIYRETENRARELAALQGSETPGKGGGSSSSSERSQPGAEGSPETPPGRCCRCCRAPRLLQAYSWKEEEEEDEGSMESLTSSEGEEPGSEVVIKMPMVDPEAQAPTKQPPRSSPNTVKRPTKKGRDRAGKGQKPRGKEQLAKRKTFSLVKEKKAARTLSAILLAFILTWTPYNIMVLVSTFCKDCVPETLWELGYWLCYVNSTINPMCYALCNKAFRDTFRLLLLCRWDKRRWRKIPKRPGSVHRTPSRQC
# Method: (§1) Methods for this study have been previously described (Venn-Watson, S., Lumpkin, R., Dennis, E. A. Efficacy of dietary odd-chain saturated fatty acid pentadecanoic acid parallels broad associated health benefits in humans: could it be essential? Sci Rep 10:8161 (2020)). Significant activities of pentadecanoylcarnitine were those tagged as having maximum pharmacological activities that were greater than or equal to 70% that of the internal control between the concentrations of 1 to 20 μM. Significant pharmacological activities caused by pentadecanoylcarnitine were compared with results from the same assays using pentadecanoic acid (C15:0).
# 5-HT1A receptor = molecular target: T2, 5-HT1A receptor (Homo sapiens, UniProt P08908); assay: Receptor-based pharmacological activity, agonist; type: biochemical; details: for EC50: read-out: RC50 (EC50)
# T2 sequence (P08908 1-422): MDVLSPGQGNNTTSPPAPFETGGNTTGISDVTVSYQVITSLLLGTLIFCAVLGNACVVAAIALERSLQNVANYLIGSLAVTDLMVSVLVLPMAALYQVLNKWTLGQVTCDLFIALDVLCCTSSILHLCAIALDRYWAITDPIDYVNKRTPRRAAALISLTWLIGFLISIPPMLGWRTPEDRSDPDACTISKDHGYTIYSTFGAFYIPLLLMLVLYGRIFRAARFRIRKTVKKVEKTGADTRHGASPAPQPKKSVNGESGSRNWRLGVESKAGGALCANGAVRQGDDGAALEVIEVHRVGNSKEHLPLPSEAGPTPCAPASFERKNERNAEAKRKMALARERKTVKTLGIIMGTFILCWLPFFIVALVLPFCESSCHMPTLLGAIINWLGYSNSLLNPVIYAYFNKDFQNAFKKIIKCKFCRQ
# Method: as §1
# 5-HT1B receptor = 5-HT1B receptor (Homo sapiens, UniProt P28222); assay: Receptor-based pharmacological activity, agonist; type: biochemical; details: for EC50: read-out: RC50 (EC50)
# 5-HT1B receptor, sequence (P28222 whole entry): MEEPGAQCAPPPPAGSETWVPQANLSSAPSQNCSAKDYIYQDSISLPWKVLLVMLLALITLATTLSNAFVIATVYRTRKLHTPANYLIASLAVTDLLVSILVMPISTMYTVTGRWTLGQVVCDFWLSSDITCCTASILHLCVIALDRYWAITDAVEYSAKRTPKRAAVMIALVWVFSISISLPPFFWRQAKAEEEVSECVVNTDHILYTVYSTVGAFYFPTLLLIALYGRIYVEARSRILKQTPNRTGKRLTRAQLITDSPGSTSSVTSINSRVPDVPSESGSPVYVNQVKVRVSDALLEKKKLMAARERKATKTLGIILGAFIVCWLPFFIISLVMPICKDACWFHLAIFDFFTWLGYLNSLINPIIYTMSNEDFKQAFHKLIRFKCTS
# Method: as §1
# Cannabinoid receptor 1 = Cannabinoid receptor 1 (Homo sapiens, UniProt P21554); assay: Receptor-based pharmacological activity, agonist; type: biochemical; details: for EC50: read-out: RC50 (EC50); for Pharmacological activity at cannabinoid receptor 1: at approximately 1 to 20 μM
# Cannabinoid receptor 1, sequence (P21554 whole entry, species assumed): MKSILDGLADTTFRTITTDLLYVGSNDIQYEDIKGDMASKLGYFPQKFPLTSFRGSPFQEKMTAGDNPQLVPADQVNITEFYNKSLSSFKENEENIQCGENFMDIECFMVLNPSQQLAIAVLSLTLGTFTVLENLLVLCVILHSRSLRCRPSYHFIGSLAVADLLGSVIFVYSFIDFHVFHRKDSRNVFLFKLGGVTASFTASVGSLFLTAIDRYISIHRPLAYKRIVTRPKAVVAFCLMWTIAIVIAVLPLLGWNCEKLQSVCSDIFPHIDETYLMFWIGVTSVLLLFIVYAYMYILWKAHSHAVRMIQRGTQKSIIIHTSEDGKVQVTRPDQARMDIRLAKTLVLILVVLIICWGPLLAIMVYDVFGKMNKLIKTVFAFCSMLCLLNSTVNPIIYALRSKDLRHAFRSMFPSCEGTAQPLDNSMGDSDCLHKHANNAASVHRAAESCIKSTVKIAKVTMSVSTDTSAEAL
# Method: as §1
# Cannabinoid receptor 2 = Cannabinoid receptor 2 (Homo sapiens, UniProt P34972); assay: Receptor-based pharmacological activity, agonist; type: biochemical; details: for EC50: read-out: RC50 (EC50); for Pharmacological activity at cannabinoid receptor 2: at approximately 1 to 20 μM
# Cannabinoid receptor 2, sequence (P34972 whole entry): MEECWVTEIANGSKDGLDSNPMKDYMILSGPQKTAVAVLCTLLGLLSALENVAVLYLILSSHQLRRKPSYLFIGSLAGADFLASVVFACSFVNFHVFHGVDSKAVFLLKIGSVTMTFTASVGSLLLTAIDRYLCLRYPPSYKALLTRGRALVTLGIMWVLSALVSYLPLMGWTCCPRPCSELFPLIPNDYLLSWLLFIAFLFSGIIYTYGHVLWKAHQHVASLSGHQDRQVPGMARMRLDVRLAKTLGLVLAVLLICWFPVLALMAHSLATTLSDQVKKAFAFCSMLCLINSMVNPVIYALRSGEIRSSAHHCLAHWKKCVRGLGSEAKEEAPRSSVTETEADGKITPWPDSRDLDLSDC
# Method: as §1
# [2] = molecular target: T3, Cholinergic receptor muscarinic 2 (Homo sapiens, UniProt P08172); assay: Receptor-based pharmacological activity, agonist; type: biochemical; details: positive control Acetylcholine chloride; for EC50: read-out: RC50 (EC50)
# T3 sequence (P08172 1-466): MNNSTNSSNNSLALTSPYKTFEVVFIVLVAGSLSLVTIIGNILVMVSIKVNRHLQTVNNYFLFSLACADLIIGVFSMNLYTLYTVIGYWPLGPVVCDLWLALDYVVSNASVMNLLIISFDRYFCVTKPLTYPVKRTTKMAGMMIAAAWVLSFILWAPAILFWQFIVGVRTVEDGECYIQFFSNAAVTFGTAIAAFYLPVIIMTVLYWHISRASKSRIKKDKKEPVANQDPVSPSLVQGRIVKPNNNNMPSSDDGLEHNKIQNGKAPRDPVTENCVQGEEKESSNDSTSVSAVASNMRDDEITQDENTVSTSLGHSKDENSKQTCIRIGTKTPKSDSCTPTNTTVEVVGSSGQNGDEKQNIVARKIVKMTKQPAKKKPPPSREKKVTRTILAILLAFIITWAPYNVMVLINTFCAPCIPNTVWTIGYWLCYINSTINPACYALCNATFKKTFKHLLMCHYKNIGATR
# Method: as §1
# α-2A adrenergic receptor = molecular target: T4, α-2A adrenergic receptor (Homo sapiens, UniProt P08913); assay: Receptor-based pharmacological activity, agonist; type: biochemical; details: for EC50: read-out: RC50 (EC50)
# T4 sequence (P08913 1-465): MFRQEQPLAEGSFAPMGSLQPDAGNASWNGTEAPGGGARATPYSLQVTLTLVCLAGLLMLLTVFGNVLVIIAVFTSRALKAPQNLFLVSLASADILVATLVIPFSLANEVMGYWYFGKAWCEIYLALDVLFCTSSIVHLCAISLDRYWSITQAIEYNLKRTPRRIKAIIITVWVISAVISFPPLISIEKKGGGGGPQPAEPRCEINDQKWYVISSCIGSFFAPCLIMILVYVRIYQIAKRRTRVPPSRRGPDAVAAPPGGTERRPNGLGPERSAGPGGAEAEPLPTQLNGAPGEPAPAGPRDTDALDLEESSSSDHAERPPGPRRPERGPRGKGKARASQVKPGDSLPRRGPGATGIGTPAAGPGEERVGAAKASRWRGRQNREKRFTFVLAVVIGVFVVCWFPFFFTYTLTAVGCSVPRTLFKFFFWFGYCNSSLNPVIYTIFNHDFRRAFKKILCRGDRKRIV
# Method: as §1
# Serotonin Transporter = Serotonin Transporter (Homo sapiens, UniProt P31645); assay: Transporter pharmacological activity, blocker; type: biochemical; details: for IC50: read-out: RC50 (IC50)
# Serotonin Transporter, sequence (P31645 whole entry): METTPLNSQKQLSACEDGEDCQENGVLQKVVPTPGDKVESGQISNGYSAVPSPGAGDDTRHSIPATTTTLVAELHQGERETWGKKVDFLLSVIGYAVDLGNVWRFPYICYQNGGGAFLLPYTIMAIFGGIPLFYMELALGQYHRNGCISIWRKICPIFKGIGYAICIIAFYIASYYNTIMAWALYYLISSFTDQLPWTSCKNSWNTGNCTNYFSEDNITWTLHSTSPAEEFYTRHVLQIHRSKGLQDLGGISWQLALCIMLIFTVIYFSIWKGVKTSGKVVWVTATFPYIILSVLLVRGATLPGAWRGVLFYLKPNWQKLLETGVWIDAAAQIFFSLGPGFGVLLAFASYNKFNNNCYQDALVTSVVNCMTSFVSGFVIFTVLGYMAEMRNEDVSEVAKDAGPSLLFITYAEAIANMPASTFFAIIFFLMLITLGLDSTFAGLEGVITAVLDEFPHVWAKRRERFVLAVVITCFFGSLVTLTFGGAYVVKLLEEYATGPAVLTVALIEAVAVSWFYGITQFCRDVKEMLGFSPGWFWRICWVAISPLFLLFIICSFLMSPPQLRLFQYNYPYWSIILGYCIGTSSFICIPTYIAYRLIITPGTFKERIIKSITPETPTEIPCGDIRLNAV
# Method: as §1
# [3] = Antagonist, positive control Atropine
# [4] = Agonist, positive control Serotonin hydrochloride, 1 to 20 μM, read-out: Max Response (%) Compared to Positive Control
# [5] = Agonist, positive control Serotonin hydrochloride
# [6] = Agonist, positive control CP 55940
# [7] = read-out: Max Response (%) Compared to Positive Control
# [8] = Agonist, positive control UK 14304
# [9] = Blocker, positive control Clomipramine
# [10] = Agonist, positive control Serotonin hydrochloride, 1 to 20 μM
# [11] = Agonist, positive control CP 55940, 1 to 20 μM
# [12] = listed as pentadecenoyl carnitine
structure (smiles),measurement,setting,value
"CCCCCCCCCCCCCCC(=O)O [Pentadecanoic acid (C15:0), Pentadecanoic acid]",sIL-6 biomarker change,BT cell system,+0.12 log 10
same,sTNF-α biomarker change,BT cell system,+0.14 log 10
same,Emax,"[1]; Antagonist, positive control Atropine, 1 to 20 μM, read-out: Max Response (%) Compared to Positive Control",0%
same,IC50,[1]; [3],> 20 µM
same,Emax,5-HT1A receptor; [4],0%
same,EC50,5-HT1A receptor; [5],> 20 µM
same,Emax,5-HT1B receptor; [4],0%
same,EC50,5-HT1B receptor; [5],> 20 µM
same,EC50,Cannabinoid receptor 1; [6],> 20 µM
same,Emax,Cannabinoid receptor 1; [7],25%
same,Emax,"Cannabinoid receptor 2; Agonist, positive control CP 55940, 1 to 20 μM, read-out: Max Response (%) Compared to Positive Control",22%
same,EC50,Cannabinoid receptor 2; [6],> 20 µM
same,Emax,"[2]; 1 to 20 μM, read-out: Max Response (%) Compared to Positive Control",2%
same,EC50,[2],> 20 µM
same,Emax,"α-2A adrenergic receptor; Agonist, positive control UK 14304, 1 to 20 μM, read-out: Max Response (%) Compared to Positive Control",22%
same,EC50,α-2A adrenergic receptor; [8],> 20 µM
same,IC50,Serotonin Transporter; [9],> 20 µM
same,Emax,Serotonin Transporter; [7],1%
"CCCCCCCCCCCCCCC(=O)O[C@H](CC(=O)[O-])C[N+](C)(C)C [Pentadecanoylcarnitine, pentadecanoylcarnitine]",sIL-6 biomarker change,BT cell system,−0.13 log 10
same,sTNF-α biomarker change,BT cell system,−0.10 log 10
same,Max Response (%) Compared to Positive Control,"[1]; Antagonist, positive control Atropine, 1 to 20 μM",77%
same,IC50,[1]; [3],10.5 µM
same,Pharmacological activity at cholinergic receptor muscarinic 1,[1]; at approximately 1 to 20 μM,antagonist
same,Max Response (%) Compared to Positive Control,5-HT1A receptor; [10],78%
same,EC50,5-HT1A receptor; [5],9.6 µM
same,Pharmacological activity at 5-HT1A receptor,5-HT1A receptor; at approximately 1 to 20 μM,agonist
same,Max Response (%) Compared to Positive Control,5-HT1B receptor; [10],74%
same,EC50,5-HT1B receptor; [5],9.3 µM
same,Pharmacological activity at 5-HT1B receptor,5-HT1B receptor; at approximately 1 to 20 μM,agonist
same,Max Response (%) Compared to Positive Control,Cannabinoid receptor 1; [11],111%
same,EC50,Cannabinoid receptor 1; [6],3.7 µM
same,Pharmacological activity at cannabinoid receptor 1,Cannabinoid receptor 1,agonist
same,Pharmacological activity at cannabinoid receptor 1,Cannabinoid receptor 1; [12],fully activates
same,Max Response (%) Compared to Positive Control,Cannabinoid receptor 2; [11],106%
same,EC50,Cannabinoid receptor 2; [6],3.2 µM
same,Pharmacological activity at cannabinoid receptor 2,Cannabinoid receptor 2,agonist
same,Pharmacological activity at cannabinoid receptor 2,Cannabinoid receptor 2; [12],fully activates
same,Max Response (%) Compared to Positive Control,[2]; 1 to 20 μM,206%
same,EC50,[2],3.9 µM
same,Max Response (%) Compared to Positive Control,"α-2A adrenergic receptor; Agonist, positive control UK 14304, 1 to 20 μM",105%
same,EC50,α-2A adrenergic receptor; [8],5.9 µM
same,Pharmacological activity at α-2A adrenergic receptor,α-2A adrenergic receptor; at approximately 1 to 20 μM,agonist
same,Max Response (%) Compared to Positive Control,"Serotonin Transporter; Blocker, positive control Clomipramine, 1 to 20 μM",83%
same,IC50,Serotonin Transporter; [9],7.4 µM
same,Pharmacological activity at SERT,Serotonin Transporter; at approximately 1 to 20 μM,blocker
